Activity calls are given as the source filed them. No rule for the calls is given here.
Test system: CCRIS mutagenicity, Ames/micronucleus/aberration tests
Assay: CCRIS mutagenicity studies
[1] = Test System: AMES SALMONELLA TYPHIMURIUM, Strain/Indicator: TA98, Metabolic Activation: NONE, Method: PREINCUBATION
[2] = Test System: AMES SALMONELLA TYPHIMURIUM, Strain/Indicator: TA100, Metabolic Activation: NONE, Method: PREINCUBATION
[3] = Test System: AMES SALMONELLA TYPHIMURIUM, Strain/Indicator: TA1535, Metabolic Activation: NONE, Method: PREINCUBATION
[4] = Test System: AMES SALMONELLA TYPHIMURIUM, Strain/Indicator: TA1537, Metabolic Activation: NONE, Method: PREINCUBATION

For `Cc1cc(-c2ccc(N=Nc3cc(S(=O)(=O)O)c4ccccc4c3N)c(C)c2)ccc1N=Nc1cc(S(=O)(=O)O)c2ccccc2c1N`, the mutagenic call (Test System: AMES SALMONELLA TYPHIMURIUM, Strain/Indicator: SV50, Metabolic Activation: HAMSTER, LIVER, S-9, Method: PREINCUBATION (PRIVAL METHOD)) was “active; positive”, the mutagenic call (Test System: AMES SALMONELLA TYPHIMURIUM, Strain/Indicator: SV50, Metabolic Activation: RAT, LIVER, S-9, AROCLOR 1254, Method: PREINCUBATION (PRIVAL METHOD)) was “active; positive” and the mutagenic call (Test System: AMES SALMONELLA TYPHIMURIUM, Strain/Indicator: TA98, Metabolic Activation: HAMSTER, LIVER, S-9, AROCLOR 1254 (10%), Method: PREINCUBATION) was “inactive; negative”. The mutagenic call (Test System: AMES SALMONELLA TYPHIMURIUM, Strain/Indicator: TA98, Metabolic Activation: HAMSTER, LIVER, S-9, AROCLOR 1254, Method: STANDARD PLATE) was “inactive; negative”, the mutagenic call (Test System: AMES SALMONELLA TYPHIMURIUM, Strain/Indicator: TA98, Metabolic Activation: HAMSTER, LIVER, S-9, Method: PREINCUBATION (PRIVAL METHOD)) was “active; positive” and the mutagenic call [1] was “inactive; negative”. The mutagenic call (Test System: AMES SALMONELLA TYPHIMURIUM, Strain/Indicator: TA98, Metabolic Activation: NONE, Method: STANDARD PLATE) was “inactive; negative”, the mutagenic call (Test System: AMES SALMONELLA TYPHIMURIUM, Strain/Indicator: TA98, Metabolic Activation: RAT, LIVER, S-9, AROCLOR 1254 (10%), Method: PREINCUBATION) was “inactive; negative” and the mutagenic call (Test System: AMES SALMONELLA TYPHIMURIUM, Strain/Indicator: TA98, Metabolic Activation: RAT, LIVER, S-9, AROCLOR 1254, Method: PREINCUBATION (PRIVAL METHOD)) was “active; positive”. The mutagenic call (Test System: AMES SALMONELLA TYPHIMURIUM, Strain/Indicator: TA98, Metabolic Activation: RAT, LIVER, S-9, AROCLOR 1254, Method: STANDARD PLATE) was “inactive; negative”, the mutagenic call (Test System: AMES SALMONELLA TYPHIMURIUM, Strain/Indicator: TA100, Metabolic Activation: HAMSTER, LIVER, S-9, AROCLOR 1254 (10%), Method: PREINCUBATION) was “inactive; negative” and the mutagenic call (Test System: AMES SALMONELLA TYPHIMURIUM, Strain/Indicator: TA100, Metabolic Activation: HAMSTER, LIVER, S-9, AROCLOR 1254, Method: STANDARD PLATE) was “inactive; negative”. For the same compound, the mutagenic call [2] was “inactive; negative”, the mutagenic call (Test System: AMES SALMONELLA TYPHIMURIUM, Strain/Indicator: TA100, Metabolic Activation: NONE, Method: STANDARD PLATE) was “inactive; negative” and the mutagenic call (Test System: AMES SALMONELLA TYPHIMURIUM, Strain/Indicator: TA100, Metabolic Activation: RAT, LIVER, S-9, AROCLOR 1254 (10%), Method: PREINCUBATION) was “inactive; negative”. The mutagenic call (Test System: AMES SALMONELLA TYPHIMURIUM, Strain/Indicator: TA100, Metabolic Activation: RAT, LIVER, S-9, AROCLOR 1254, Method: STANDARD PLATE) was “inactive; negative”, the mutagenic call (Test System: AMES SALMONELLA TYPHIMURIUM, Strain/Indicator: TA1535, Metabolic Activation: HAMSTER, LIVER, S-9, AROCLOR 1254 (10%), Method: PREINCUBATION) was “inactive; negative” and the mutagenic call (Test System: AMES SALMONELLA TYPHIMURIUM, Strain/Indicator: TA1535, Metabolic Activation: HAMSTER, LIVER, S-9, AROCLOR 1254, Method: STANDARD PLATE) was “inactive; negative”. The mutagenic call [3] was “inactive; negative”, the mutagenic call (Test System: AMES SALMONELLA TYPHIMURIUM, Strain/Indicator: TA1535, Metabolic Activation: NONE, Method: STANDARD PLATE) was “inactive; negative” and the mutagenic call (Test System: AMES SALMONELLA TYPHIMURIUM, Strain/Indicator: TA1535, Metabolic Activation: RAT, LIVER, S-9, AROCLOR 1254 (10%), Method: PREINCUBATION) was “inactive; negative”. For the same compound, the mutagenic call (Test System: AMES SALMONELLA TYPHIMURIUM, Strain/Indicator: TA1535, Metabolic Activation: RAT, LIVER, S-9, AROCLOR 1254, Method: STANDARD PLATE) was “inactive; negative”, the mutagenic call (Test System: AMES SALMONELLA TYPHIMURIUM, Strain/Indicator: TA1537, Metabolic Activation: HAMSTER, LIVER, S-9, AROCLOR 1254 (10%), Method: PREINCUBATION) was “inactive; negative” and the mutagenic call (Test System: AMES SALMONELLA TYPHIMURIUM, Strain/Indicator: TA1537, Metabolic Activation: HAMSTER, LIVER, S-9, AROCLOR 1254, Method: STANDARD PLATE) was “inactive; negative”. The mutagenic call [4] was “inactive; negative”, the mutagenic call (Test System: AMES SALMONELLA TYPHIMURIUM, Strain/Indicator: TA1537, Metabolic Activation: NONE, Method: STANDARD PLATE) was “inactive; negative” and the mutagenic call (Test System: AMES SALMONELLA TYPHIMURIUM, Strain/Indicator: TA1537, Metabolic Activation: RAT, LIVER, S-9, AROCLOR 1254 (10%), Method: PREINCUBATION) was “inactive; negative”. For the same compound, the mutagenic call (Test System: AMES SALMONELLA TYPHIMURIUM, Strain/Indicator: TA1537, Metabolic Activation: RAT, LIVER, S-9, AROCLOR 1254, Method: STANDARD PLATE) was “inactive; negative”, the mutagenic call (Test System: AMES SALMONELLA TYPHIMURIUM, Strain/Indicator: TA1538, Metabolic Activation: HAMSTER, LIVER, S-9, AROCLOR 1254, Method: STANDARD PLATE) was “inactive; negative” and the mutagenic call (Test System: AMES SALMONELLA TYPHIMURIUM, Strain/Indicator: TA1538, Metabolic Activation: HAMSTER, LIVER, S-9, Method: STANDARD PLATE) was “inactive; negative”. For the same compound, the mutagenic call (Test System: AMES SALMONELLA TYPHIMURIUM, Strain/Indicator: TA1538, Metabolic Activation: NONE, Method: STANDARD PLATE) was “inactive; negative”, the mutagenic call (Test System: AMES SALMONELLA TYPHIMURIUM, Strain/Indicator: TA1538, Metabolic Activation: RAT, LIVER, S-9, AROCLOR 1254, Method: STANDARD PLATE) was “inactive; negative” and the mutagenic call (Test System: MOUSE LYMPHOMA, Strain/Indicator: L5178Y (TK+/TK-), Metabolic Activation: NONE, Method: SUSPENSION/PLATE) was “inactive; negative. reevaluation of results: negative”. For the same compound, the mutagenic call (Test System: MOUSE LYMPHOMA, Strain/Indicator: L5178Y (TK+/TK-), Metabolic Activation: RAT, LIVER, S-9, AROCLOR 1254, Method: SUSPENSION/PLATE) was “inactive; negative. reevaluation of results: negative”.

`NS(=O)(=O)c1cc2c(cc1Cl)NC=NS2(=O)=O` was tested, and the mutagenic call (Test System: AMES SALMONELLA TYPHIMURIUM, Strain/Indicator: TA97, Metabolic Activation: HAMSTER, LIVER, S-9, AROCLOR 1254 (10 OR 30%), Method: PREINCUBATION) was “inactive; negative”, the mutagenic call (Test System: AMES SALMONELLA TYPHIMURIUM, Strain/Indicator: TA97, Metabolic Activation: NONE, Method: PREINCUBATION) was “inactive; negative” and the mutagenic call (Test System: AMES SALMONELLA TYPHIMURIUM, Strain/Indicator: TA97, Metabolic Activation: RAT, LIVER, S-9, AROCLOR 1254 (10 OR 30%), Method: PREINCUBATION) was “inactive; negative”. For the same compound, the mutagenic call (Test System: AMES SALMONELLA TYPHIMURIUM, Strain/Indicator: TA98, Metabolic Activation: HAMSTER, LIVER, S-9, AROCLOR 1254 (10 OR 30%), Method: PREINCUBATION) was “inactive; negative”, the mutagenic call [1] was “inactive; negative” and the mutagenic call (Test System: AMES SALMONELLA TYPHIMURIUM, Strain/Indicator: TA98, Metabolic Activation: RAT, LIVER, S-9, AROCLOR 1254 (10 OR 30%), Method: PREINCUBATION) was “inactive; negative”. For the same compound, the mutagenic call (Test System: AMES SALMONELLA TYPHIMURIUM, Strain/Indicator: TA100, Metabolic Activation: HAMSTER, LIVER, S-9, AROCLOR 1254 (10 OR 30%), Method: PREINCUBATION) was “inactive; negative”, the mutagenic call [2] was “inactive; negative” and the mutagenic call (Test System: AMES SALMONELLA TYPHIMURIUM, Strain/Indicator: TA100, Metabolic Activation: RAT, LIVER, S-9, AROCLOR 1254 (10 OR 30%), Method: PREINCUBATION) was “inactive; negative”. The mutagenic call (Test System: AMES SALMONELLA TYPHIMURIUM, Strain/Indicator: TA1535, Metabolic Activation: HAMSTER, LIVER, S-9, AROCLOR 1254 (10 OR 30%), Method: PREINCUBATION) was “inactive; negative”, the mutagenic call [3] was “inactive; negative” and the mutagenic call (Test System: AMES SALMONELLA TYPHIMURIUM, Strain/Indicator: TA1535, Metabolic Activation: RAT, LIVER, S-9, AROCLOR 1254 (10 OR 30%), Method: PREINCUBATION) was “inactive; negative”. For the same compound, the mutagenic call (Test System: AMES SALMONELLA TYPHIMURIUM, Strain/Indicator: TA1537, Metabolic Activation: HAMSTER, LIVER, S-9, AROCLOR 1254 (30%), Method: PREINCUBATION) was “inactive; negative”, the mutagenic call [4] was “inactive; negative” and the mutagenic call (Test System: AMES SALMONELLA TYPHIMURIUM, Strain/Indicator: TA1537, Metabolic Activation: RAT, LIVER, S-9, AROCLOR 1254 (30%), Method: PREINCUBATION) was “inactive; negative”.

From PubChem BioAssay AID1259407 (Chemical Carcinogenesis Research Information System (CCRIS), 2018)
